Counter-ions that a name gives are not always drawn.
Tested on: Hot Plate Test
Experiment: 52° C. hot plate test after systemic administration
Type: in vivo, rat
Settings: rats, 10 mg/kg i.p., vs vehicle
Procedure: Rats were injected with either vehicle or 10 mg/kg Compound 2616 (i.p.) and then assessed for possible changes in sensitivity to a noxious thermal stimulus using the 52° C. hot plate test.

`NC(N)=NN=Cc1ccc(-c2ccccc2C(F)(F)F)o1` (racemic) [Compound 2616, 1-[(5-(2-(Trifluoromethyl)phenyl)-furan-2-yl)-methyleneamino]guanidine Hydrochloride] was tested, and the “hot plate latency (thermal hyperalgesia)” value was “produced a significant reduction in the hot plate latency”.

— patent US20050136444A1 (priority 2003, published 2005)
